Source: US8975248B2, “Combinations of therapeutic agents for treating cancer” (Sigma-Tau Industrie Farmaceutiche Riunite S.p.A., priority 2004, dated 2015)
Where two headings read alike, the source gives them in different places.

Key:
[1] = tested on: A2780 ovarian carcinoma; assay: Antitumor activity against A2780 ovarian carcinoma xenograft; format: in vivo, human (s.c. xenograft in CD1 nu/nu mice)
Method: Vehicle • 2. […] Oxaliplatin 7 mg/10 ml/kg and 4.7 mg/10 ml/kg, i.p. (q4dx2, days 3, 7). • 4. Combination groups: 7-t-butoxyiminomethylcamptothecin+oxaliplatin: 0.28+7, 0.28+4.7, 0.19+7, 0.19+4.7. • 5. […] Oxaliplatin 7 mg/10 ml/kg, i.p. (q7dx2, days 3, 10). • 7. Combination groups: 7-t-butoxyiminomethylcamptothecin+oxaliplatin 0.19+7.
7-8 mice/group are treated 3 days after tumor injection with the following drugs. • 1. Vehicle • 2. […] Carboplatin 50 mg/10 ml/kg, i.p. (q7dx2, days 3, 10). • 7. Combination groups: 7-t-butoxyiminomethylcamptothecin+carboplatin 0.19+50.
(§1) In all the combination groups, the drug were administered 1 h before 7-t butoxyiminomethylcamptothecin.

[2] = tested on: DU145 prostate carcinoma; assay: Antitumor activity against DU145 xenograft; conditions: for BWL % (body weight loss): in vivo, po
Method: 8 mice/group are treated 14 days after tumor injection with the following drugs: • 1. Vehicle • 2.
8 mice/group are also treated 14 days after tumor injection with the following drugs: • 1. […] Docetaxel 20 mg/10 mi/kg, i.p., (q7dx3, days 14, 21, 28). • 3. Combination groups: 7-t-butoxyiminomethylcamptothecin+docetaxel 0.17+20.

[3] = tested on: A2780/DDP platinum-resistant ovarian carcinoma; assay: Antitumor activity against A2780/DDP xenograft; format: in vivo, human (xenograft in CD1 nu/nu mice)
Method: 8 mice/group are treated 3 days after tumor injection with the following drugs. • 1. Vehicle • 2.
as §1

[4] = Maximum tolerated dose (MTD) in tumor-bearing mice; format: in vivo
[5] = tested on: NCI-H460 NSCLC; assay: Antitumor activity against NCI-H460 xenograft (paclitaxel); conditions: for reduction of the tumor volume: 5 days for 3 cycles
Method: (§2) Mice are treated with 3 intravenously doses of paclitaxel at days 3, 10, 17 after tumor injection. […] Treatments in NCI-H460 tumor model are performed in the following groups of 8 mice each: • 1. Vehicle • 2. 50 mg/15 ml/kg, i.v. of paclitaxel (3, 10, 17) • 3. […] 25 mg/15 ml/kg, i.v. of paclitaxel (3, 10, 17) • 5.

[6] = tested on: NCI-H460 NSCLC; conditions: in vivo, po
Method: as §2

[7] = tested on: NCI-H460 non-small cell lung carcinoma; assay: Antitumor activity against NCI-H460 xenograft (docetaxel, carboplatin); format: in vivo, human (xenograft in CD1 nu/nu mice)
[8] = tested on: MDA MB 435S human breast cancer; assay: Antitumor activity against MDA MB 435S xenograft; format: in vivo, human (xenograft in BALB/c nu/nu mice)
Method: Test system: BALB/c nu/nu mice for tumor models are used.
The cells are harvested by trypsinisation, washed twice in HBSS and counted using Trypan Blue to distinguish viable cells.
Doxorubicin (either on its own or in conjunction with Gimatecan) is administered 3 times per week intravenously, via the tail vein (i.v.). • 1. Vehicle • 2.
The paired t-test is used to determine differences in body weight changes from Day 0 to Day 13 for groups 14 and 15 and from Day 0 to Day 20 for all other groups (Table 4). All calculations are done using SigmaStat 3.0. The one way ANOVA procedure is used for statistical calculations of differences in the tumor volumes.

[9] = tested on: MCF-7 human breast ca.; assay: Antitumor activity against MCF-7 breast carcinoma xenograft; conditions: for BWL % (body weight loss): in vivo, po
Method: The pellets are placed in the inter scapular region one day before the tumor cells inoculation. 8 mice/group are treated 6 days after tumor injection with the following drugs: • 1. Vehicle • 2.

[10] = A 0.28 mg/kg p.o. qdx5/w, 0.28 mg/kg
[11] = A 0.08 mg/kg p.o. qdx5/w, 3 cycles
[12] = docetaxel 20 mg/kg i.p. q3-4dx2
[13] = carboplatin 50 mg/kg i.p. q4dx2

CC[C@@]1(O)C(=O)OCc2c1cc1n(c2=O)Cc2c-1nc1ccccc1c2/C=N/OC(C)(C)C [A]
BWL % (body weight loss) ([1]; A 0.19 mg/kg p.o. qdx5/w): 6%
CR (complete response) ([1]; A 0.19 mg/kg p.o. qdx5/w): 8/8
LCK (log10 cell kill) ([1]; A 0.19 mg/kg p.o. qdx5/w): 2.15
TVI % (tumor volume inhibition) ([1]; A 0.19 mg/kg p.o. qdx5/w): 100%
Tox (dead/treated mice) ([1]; A 0.19 mg/kg p.o. qdx5/w): 0/8
BWL % (body weight loss) ([1]; A 0.19 mg/kg p.o. qdx5/wx2w): 6%
CR (complete response) ([1]; A 0.19 mg/kg p.o. qdx5/wx2w): 4/7
LCK (log10 cell kill) ([1]; A 0.19 mg/kg p.o. qdx5/wx2w): 3.15
TVI % (tumor volume inhibition) ([1]; A 0.19 mg/kg p.o. qdx5/wx2w): 100%
Tox (dead/treated mice) ([1]; A 0.19 mg/kg p.o. qdx5/wx2w): 0/7
BWL % (body weight loss) ([1]; A 0.28 mg/kg p.o. qdx5/w): 13%
CR (complete response) ([1]; A 0.28 mg/kg p.o. qdx5/w): 8/8
TVI % (tumor volume inhibition) ([1]; A 0.28 mg/kg p.o. qdx5/w): 100%
Tox (dead/treated mice) ([1]; A 0.28 mg/kg p.o. qdx5/w): 0/8
LCK (log10 cell kill) [1, 10]: 2.44
CR (complete response) ([2]; A 0.19 mg/kg p.o. qdx5/w): 0/8
LCK (log10 cell kill) ([2]; A 0.19 mg/kg p.o. qdx5/w): 0.28
TVI % (tumor volume inhibition) ([2]; A 0.19 mg/kg p.o. qdx5/w): 25%
Tox (dead/treated mice) ([2]; A 0.19 mg/kg p.o. qdx5/w): 0/8
CR (complete response) ([2]; A 0.25 mg/kg p.o. qdx5/w): 0/8
LCK (log10 cell kill) ([2]; A 0.25 mg/kg p.o. qdx5/w): 0.28
TVI % (tumor volume inhibition) ([2]; A 0.25 mg/kg p.o. qdx5/w): 53%
Tox (dead/treated mice) ([2]; A 0.25 mg/kg p.o. qdx5/w): 0/8
BWL % (body weight loss) ([2]; 0.19 mg/kg): 4%
BWL % (body weight loss) ([2]; 0.25 mg/kg): 8%
BWL % (body weight loss) ([3]; A 0.19 mg/kg p.o. qdx5/w): 1%
LCK (log10 cell kill) ([3]; A 0.19 mg/kg p.o. qdx5/w): 0.18
TVI % (tumor volume inhibition) ([3]; A 0.19 mg/kg p.o. qdx5/w): 35%
Tox (dead/treated mice) ([3]; A 0.19 mg/kg p.o. qdx5/w): 0/8
BWL % (body weight loss) ([3]; A 0.28 mg/kg p.o. qdx5/w): 7%
LCK (log10 cell kill) ([3]; A 0.28 mg/kg p.o. qdx5/w): 0.23
TVI % (tumor volume inhibition) ([3]; A 0.28 mg/kg p.o. qdx5/w): 46%
Tox (dead/treated mice) ([3]; A 0.28 mg/kg p.o. qdx5/w): 0/8
MTD at 5 days ([4]; CD1 nu/nu, mouse, in vivo, po, p.o. qdx5): 0.28 mg/kg
MTD ([4]; female, CD1 nu/nu, mouse, in vivo, oral, qdx5/w, A2780/DDP model, read-out: approximate maximum tolerated dose): ~0.28 mg/kg
MTD ([4]; male, mouse, in vivo, oral, qdx5/w, DU145 model, read-out: approximate maximum tolerated dose): ~0.25 mg/kg
T/C % (TW in treated mice/TW in control mice × 100) [5, 11]: 59.5%
Tox (dead/treated mice) [5, 11]: 0/8
T/C % (TW in treated mice/TW in control mice × 100) ([5]; A 0.125 mg/kg p.o. qdx5/w, 3 cycles): 9.9%
Tox (dead/treated mice) ([5]; A 0.125 mg/kg p.o. qdx5/w, 3 cycles, 0.125 mg/kg): 0/8
reduction of the tumor volume ([5]; A 0.125 mg/kg): ~90%
T/C % (TW in treated mice/TW in control mice × 100) ([5]; A 0.25 mg/kg p.o. qdx5/w, 3 cycles): 1.5%
Tox (dead/treated mice) ([5]; A 0.25 mg/kg p.o. qdx5/w, 3 cycles, 0.25 mg/kg): 0/8
reduction of the tumor volume ([5]; A 0.25 mg/kg): about 99%
BWL % (body weight loss) ([6]; 0.08 mg/kg): 0%
BWL % (body weight loss) ([6]; 0.125 mg/kg): 0%
BWL % (body weight loss) ([6]; 0.25 mg/kg): 0%
BWL % (body weight loss) ([7]; A 0.19 mg/kg p.o. qdx5/w): 8%
CR (complete response) ([7]; A 0.19 mg/kg p.o. qdx5/w): 1/8
LCK (log10 cell kill) ([7]; A 0.19 mg/kg p.o. qdx5/w): 1.14
TVI % (tumor volume inhibition) ([7]; A 0.19 mg/kg p.o. qdx5/w): 79%
Tox (dead/treated mice) ([7]; A 0.19 mg/kg p.o. qdx5/w): 0/8
BWL % (body weight loss) ([7]; A 0.19 mg/kg p.o. qdx5/wx2w): 7%
CR (complete response) ([7]; A 0.19 mg/kg p.o. qdx5/wx2w): 0/7
LCK (log10 cell kill) ([7]; A 0.19 mg/kg p.o. qdx5/wx2w): 2.3
TVI % (tumor volume inhibition) ([7]; A 0.19 mg/kg p.o. qdx5/wx2w): 94%
Tox (dead/treated mice) ([7]; A 0.19 mg/kg p.o. qdx5/wx2w): 0/7
BWL % (body weight loss) ([7]; A 0.28 mg/kg p.o. qdx5/w): 16%
CR (complete response) ([7]; A 0.28 mg/kg p.o. qdx5/w): 0/8
LCK (log10 cell kill) ([7]; A 0.28 mg/kg p.o. qdx5/w): 1.45
TVI % (tumor volume inhibition) ([7]; A 0.28 mg/kg p.o. qdx5/w): 94%
Tox (dead/treated mice) ([7]; A 0.28 mg/kg p.o. qdx5/w): 1/8
BWL % (body weight loss) ([8]; A 0.07 mg/kg p.o. qdx5/w): (+2.5) %
T/C % ([8]; A 0.07 mg/kg p.o. qdx5/w): 93%
Tox (dead/treated mice) ([8]; A 0.07 mg/kg p.o. qdx5/w): 9/9
BWL % (body weight loss) ([8]; A 0.14 mg/kg p.o. qdx5/w): 1%
T/C % ([8]; A 0.14 mg/kg p.o. qdx5/w): 46%
Tox (dead/treated mice) ([8]; A 0.14 mg/kg p.o. qdx5/w): 0/9
BWL % (body weight loss) ([8]; A 0.21 mg/kg p.o. qdx5/w): 1%
T/C % ([8]; A 0.21 mg/kg p.o. qdx5/w): 5%
Tox (dead/treated mice) ([8]; A 0.21 mg/kg p.o. qdx5/w): 1/9
CR (complete response) ([9]; A 0.19 mg/kg p.o. qdx5/w): 1/8
TVI % (tumor volume inhibition) ([9]; A 0.19 mg/kg p.o. qdx5/w): 81%
Tox (dead/treated mice) ([9]; A 0.19 mg/kg p.o. qdx5/w): 2/8
TVI % (tumor volume inhibition) ([9]; A 0.28 mg/kg p.o. qdx5/w): 70%
Tox (dead/treated mice) ([9]; A 0.28 mg/kg p.o. qdx5/w): 1/8
CR (complete response) [9, 10]: 1/8
BWL % (body weight loss) ([9]; 0.19 mg/kg): 10%
BWL % (body weight loss) ([9]; 0.28 mg/kg): 9%

CC(=O)O[C@@]12CO[C@@H]1C[C@H](O)[C@@]1(C)C(=O)[C@H](O)C3=C(C)[C@@H](OC(=O)[C@H](O)[C@@H](NC(=O)OC(C)(C)C)c4ccccc4)C[C@@](O)([C@@H](OC(=O)c4ccccc4)[C@H]21)C3(C)C [B, docetaxel, reference compound]
MTD ([4]; CD1 nu/nu, mouse, in vivo, ip, docetaxel i.p. q4dx2, read-out: MTD): 20 mg/kg
TVI % (tumor volume inhibition) ([7]; docetaxel 20 mg/kg i.p. q4dx2): 63%
CR (complete response) [9, 12]: 1/8
TVI % (tumor volume inhibition) [9, 12]: 73%

CC(=O)O[C@H]1C(=O)[C@@]2(C)[C@H]([C@H](OC(=O)c3ccccc3)[C@]3(O)C[C@H](OC(=O)[C@H](O)[C@@H](NC(=O)c4ccccc4)c4ccccc4)C(C)=C1C3(C)C)[C@]1(OC(C)=O)CO[C@@H]1C[C@@H]2O [B, paclitaxel, reference compound]
MTD ([4]; female, CD1 nu/nu, mouse, in vivo, iv, paclitaxel i.v. q7dx3, read-out: tolerated dose (MTD)): 50 mg/kg
T/C % (TW in treated mice/TW in control mice × 100) ([5]; paclitaxel 25 mg/kg i.v. q7dx3): 55.2%
T/C % (TW in treated mice/TW in control mice × 100) ([5]; paclitaxel 33.3 mg/kg i.v. q7dx3): 36.8%
T/C % (TW in treated mice/TW in control mice × 100) ([5]; paclitaxel 50 mg/kg i.v. q7dx3): 38.6%

carboplatin [reference compound]
TVI % (tumor volume inhibition) [3, 13]: 34%
MTD ([4]; carboplatin i.p. q4dx2): 50 mg/kg
TVI % (tumor volume inhibition) [7, 13]: 59%
